In paper PMC5788574 (The Journal of comparative neurology, 2017):

Legend:
[1] = Expanded acute toxicity study, intravenous, rats; format: in vivo, Sprague-Dawley rats
[2] = test system: all other receptor subtypes tested; assay: PDSP screen of other receptor subtypes at 10 μM; format: binding, human; settings: significant inhibition >50%
[3] = biological target: nAChR α2β4 (Homo sapiens, UniProt P30926+Q15822); assay: biochemical; format: binding
[4] = biological target: hα4β2 nAChR (Homo sapiens, UniProt P17787+P43681); format: binding; settings: read-out: Ki α4β2; human cloned receptors, 3H-epibatidine
[5] = biological target: hβ4 nAChR subtypes; format: binding, human; settings: read-out: Affinity for hβ4 nAChR subtypes; range over α4β4, α3β4, α2β4
[6] = biological target: nAChR α3β4 (Homo sapiens, UniProt P30926+P32297); format: binding
[7] = biological target: α7 nAChR (Rattus norvegicus, UniProt Q05941); format: binding; settings: read-out: Ki α7; rat cloned receptors labeled with 125I-α-bungarotoxin
[8] = test system: human α4β2 nAChR; assay: [86Rb+]rubidium efflux functional assay, YXα4β2H1 cells; format: cell-based; settings: for As Antagonist, α4β2 nAChR, inhibition of nicotine-stimulated 86Rb+ efflux: vs 100 μM nicotine
[9] = test system: human α3β4 nAChR; assay: [86Rb+]rubidium efflux functional assay, YXα3β4H1 cells; format: cell-based; settings: for As Antagonist, α3β4 nAChR, inhibition of nicotine-stimulated 86Rb+ efflux: vs 100 μM nicotine
[10] = biological target: hα3β2 nAChR (Homo sapiens, UniProt P17787+P32297); format: binding
[11] = biological target: nAChR α4β4 (Homo sapiens, UniProt P30926+P43681); format: binding
[12] = biological target: hα2β2 nAChR (Homo sapiens, UniProt P17787+Q15822); assay: biochemical; format: binding
[13] = ref Kimes et al., 2003; cited from earlier work
[14] = [α4β2 affinity/other receptor affinity]×100, human α4β2 affinities
[15] = 100 μM, 100 μM nicotine as 100%

Chain of hα2β2 nAChR (Q15822 27-529): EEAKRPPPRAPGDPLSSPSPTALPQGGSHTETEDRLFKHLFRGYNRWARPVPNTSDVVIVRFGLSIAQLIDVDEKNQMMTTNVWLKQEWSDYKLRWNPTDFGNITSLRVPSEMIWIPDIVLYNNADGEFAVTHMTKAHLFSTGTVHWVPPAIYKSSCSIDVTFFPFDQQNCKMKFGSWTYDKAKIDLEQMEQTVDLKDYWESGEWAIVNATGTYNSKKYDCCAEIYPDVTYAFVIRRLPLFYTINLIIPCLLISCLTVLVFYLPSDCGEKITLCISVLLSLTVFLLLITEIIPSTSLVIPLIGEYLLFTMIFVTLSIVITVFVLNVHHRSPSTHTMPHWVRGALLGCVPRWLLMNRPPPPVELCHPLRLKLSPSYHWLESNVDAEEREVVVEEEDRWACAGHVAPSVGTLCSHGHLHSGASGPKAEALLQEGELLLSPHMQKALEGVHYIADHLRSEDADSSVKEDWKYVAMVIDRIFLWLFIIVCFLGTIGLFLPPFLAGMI
Chain of hα2β2 nAChR (P17787 26-502): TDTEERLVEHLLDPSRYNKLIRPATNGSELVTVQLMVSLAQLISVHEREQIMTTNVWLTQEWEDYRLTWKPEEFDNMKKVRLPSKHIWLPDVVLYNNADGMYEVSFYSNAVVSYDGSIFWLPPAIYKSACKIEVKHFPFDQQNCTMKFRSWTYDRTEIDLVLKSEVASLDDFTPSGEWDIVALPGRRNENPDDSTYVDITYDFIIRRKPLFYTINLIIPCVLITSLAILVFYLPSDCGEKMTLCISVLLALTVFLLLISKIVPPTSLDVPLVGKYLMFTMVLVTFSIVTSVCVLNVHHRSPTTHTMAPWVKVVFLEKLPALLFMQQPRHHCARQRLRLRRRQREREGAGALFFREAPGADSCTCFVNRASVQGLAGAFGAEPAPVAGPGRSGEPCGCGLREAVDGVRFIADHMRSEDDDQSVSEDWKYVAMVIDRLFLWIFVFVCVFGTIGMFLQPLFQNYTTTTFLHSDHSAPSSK
Chain of hα3β2 nAChR (P17787 26-502): as above
Chain of hα3β2 nAChR (P32297 32-505): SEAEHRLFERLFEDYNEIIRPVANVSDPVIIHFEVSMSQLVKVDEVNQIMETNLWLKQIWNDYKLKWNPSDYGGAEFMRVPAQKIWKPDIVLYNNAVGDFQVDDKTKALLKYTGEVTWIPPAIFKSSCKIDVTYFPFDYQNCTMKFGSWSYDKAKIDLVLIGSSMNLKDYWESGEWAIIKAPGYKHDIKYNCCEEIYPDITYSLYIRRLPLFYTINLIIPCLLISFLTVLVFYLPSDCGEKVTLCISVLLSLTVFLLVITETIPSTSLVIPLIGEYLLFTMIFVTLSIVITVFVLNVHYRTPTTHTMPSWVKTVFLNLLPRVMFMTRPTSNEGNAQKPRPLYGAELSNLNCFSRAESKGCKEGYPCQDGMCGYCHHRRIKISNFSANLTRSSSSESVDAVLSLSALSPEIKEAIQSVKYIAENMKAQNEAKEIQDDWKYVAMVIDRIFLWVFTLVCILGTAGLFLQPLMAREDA
Chain of nAChR α4β4 (P43681 29-627): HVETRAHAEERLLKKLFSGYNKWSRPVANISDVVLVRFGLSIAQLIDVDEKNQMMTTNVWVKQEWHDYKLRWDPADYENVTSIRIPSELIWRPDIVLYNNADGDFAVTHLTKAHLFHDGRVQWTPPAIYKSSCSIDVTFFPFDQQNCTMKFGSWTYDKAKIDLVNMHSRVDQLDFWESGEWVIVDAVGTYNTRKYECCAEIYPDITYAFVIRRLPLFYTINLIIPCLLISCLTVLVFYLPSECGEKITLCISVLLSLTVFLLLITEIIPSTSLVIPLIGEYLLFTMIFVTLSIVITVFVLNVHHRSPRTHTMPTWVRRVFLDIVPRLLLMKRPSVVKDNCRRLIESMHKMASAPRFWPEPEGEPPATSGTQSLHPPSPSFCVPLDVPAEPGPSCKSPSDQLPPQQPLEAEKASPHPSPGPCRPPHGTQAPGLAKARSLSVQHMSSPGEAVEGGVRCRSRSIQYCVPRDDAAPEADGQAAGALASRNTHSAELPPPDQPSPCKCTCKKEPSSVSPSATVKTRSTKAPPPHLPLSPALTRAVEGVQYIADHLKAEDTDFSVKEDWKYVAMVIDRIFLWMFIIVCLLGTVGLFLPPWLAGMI
Chain of nAChR α4β4 (P30926 22-498): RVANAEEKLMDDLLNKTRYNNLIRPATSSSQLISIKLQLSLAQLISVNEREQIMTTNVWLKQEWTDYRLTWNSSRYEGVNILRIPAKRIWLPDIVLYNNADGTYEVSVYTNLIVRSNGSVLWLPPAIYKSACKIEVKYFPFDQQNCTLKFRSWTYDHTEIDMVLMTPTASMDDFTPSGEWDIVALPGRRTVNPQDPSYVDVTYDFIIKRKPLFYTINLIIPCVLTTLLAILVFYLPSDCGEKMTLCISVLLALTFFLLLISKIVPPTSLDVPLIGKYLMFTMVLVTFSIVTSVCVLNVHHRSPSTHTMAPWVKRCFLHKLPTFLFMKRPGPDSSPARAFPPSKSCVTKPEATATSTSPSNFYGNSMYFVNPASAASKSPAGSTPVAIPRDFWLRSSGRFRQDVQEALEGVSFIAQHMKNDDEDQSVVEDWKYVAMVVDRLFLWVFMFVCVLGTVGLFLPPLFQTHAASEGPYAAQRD
Chain of nAChR α2β4 (Q15822 27-529): as the sequence (Q15822 27-529) above
Chain of nAChR α2β4 (P30926 22-498): as the sequence (P30926 22-498) above
Chain of nAChR α3β4 (P32297 32-505): as the sequence (P32297 32-505) above
Chain of nAChR α3β4 (P30926 22-498): as the sequence (P30926 22-498) above
Chain of hα4β2 nAChR (P17787 26-502): as the sequence (P17787 26-502) above
Chain of hα4β2 nAChR (P43681 27-627): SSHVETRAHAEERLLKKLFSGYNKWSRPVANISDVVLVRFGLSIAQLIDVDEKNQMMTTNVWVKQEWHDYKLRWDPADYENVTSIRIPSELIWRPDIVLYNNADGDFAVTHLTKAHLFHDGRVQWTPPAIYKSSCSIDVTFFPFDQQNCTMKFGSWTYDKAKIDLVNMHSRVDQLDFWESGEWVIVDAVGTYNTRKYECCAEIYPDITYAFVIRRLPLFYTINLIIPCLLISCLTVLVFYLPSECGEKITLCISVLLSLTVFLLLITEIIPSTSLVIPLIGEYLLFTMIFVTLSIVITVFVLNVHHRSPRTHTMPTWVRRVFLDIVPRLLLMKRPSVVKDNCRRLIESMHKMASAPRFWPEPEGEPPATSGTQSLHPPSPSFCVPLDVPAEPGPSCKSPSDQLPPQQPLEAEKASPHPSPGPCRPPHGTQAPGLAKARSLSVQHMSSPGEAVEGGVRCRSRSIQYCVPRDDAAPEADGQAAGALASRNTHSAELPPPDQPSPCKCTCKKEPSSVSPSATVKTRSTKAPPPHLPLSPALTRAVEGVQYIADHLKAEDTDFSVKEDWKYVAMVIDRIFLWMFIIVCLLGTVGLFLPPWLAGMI
Chain of α7 nAChR (Q05941 23-502): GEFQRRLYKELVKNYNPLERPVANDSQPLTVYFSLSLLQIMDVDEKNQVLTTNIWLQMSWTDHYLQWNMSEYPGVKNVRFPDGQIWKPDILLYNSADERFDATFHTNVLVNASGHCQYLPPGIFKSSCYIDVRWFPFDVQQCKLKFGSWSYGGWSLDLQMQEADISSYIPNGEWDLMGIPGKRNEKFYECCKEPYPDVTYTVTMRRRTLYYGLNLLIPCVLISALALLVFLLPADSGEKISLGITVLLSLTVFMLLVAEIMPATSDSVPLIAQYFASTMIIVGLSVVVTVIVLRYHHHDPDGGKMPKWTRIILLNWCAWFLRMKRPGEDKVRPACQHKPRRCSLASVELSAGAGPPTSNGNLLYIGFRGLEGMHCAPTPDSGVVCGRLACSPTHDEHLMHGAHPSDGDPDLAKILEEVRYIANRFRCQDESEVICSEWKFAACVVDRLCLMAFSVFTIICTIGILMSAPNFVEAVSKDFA

Fc1ncccc1OC[C@@H]1C=CCN1 [Nifene]
Tolerability of intravenous injections ([1]; Sprague-Dawley male and female rats, 1.6, 20 and 40 μg/kg/day): well tolerated
Morbidity or mortality ([1]; rats, up to 40 μg/kg/day i.v.): no morbidity or mortality
Affinity at all other receptor subtypes tested [2]: did not exhibit significant affinity
% human α4β2 Selectivity, α2β4 [3, 14]: 1.58%
Ki ([3]; read-out: Ki α2β4, human cloned receptors, 3H-epibatidine): 52.4 nM
Ki [4]: 0.83 nM
Ki [5]: 27 to 219 nM
% human α4β2 Selectivity, α3β4 [6, 14]: 0.44%
Ki ([6]; read-out: Ki α3β4, human cloned receptors, 3H-epibatidine): 190 nM
Ki [7]: 169 nM
As Antagonist, α4β2 nAChR, inhibition of nicotine-stimulated 86Rb+ efflux ([8]; 1 μM): 18%
As Antagonist, α4β2 nAChR, inhibition of nicotine-stimulated 86Rb+ efflux ([8]; 10 μM): 21%
As Agonist, α4β2 nAChR, stimulated 86Rb+ efflux [8, 15]: 14%
As Antagonist, α4β2 nAChR, inhibition of nicotine-stimulated 86Rb+ efflux ([8]; 100 μM): 56%
As Antagonist, α3β4 nAChR, inhibition of nicotine-stimulated 86Rb+ efflux ([9]; 1 μM): 9%
As Antagonist, α3β4 nAChR, inhibition of nicotine-stimulated 86Rb+ efflux ([9]; 10 μM): 16%
As Agonist, α3β4 nAChR, stimulated 86Rb+ efflux [9, 15]: 35%
As Antagonist, α3β4 nAChR, inhibition of nicotine-stimulated 86Rb+ efflux ([9]; 100 μM): 59%
% human α4β2 Selectivity, α3β2 [10, 14]: 104%
Ki ([10]; read-out: Ki α3β2, human cloned receptors, 3H-epibatidine): 0.8 nM
% human α4β2 Selectivity, α4β4 [11, 14]: 3.05%
Ki ([11]; read-out: Ki α4β4, human cloned receptors, 3H-epibatidine): 27.2 nM
Fold higher affinity for α2β2 compared to α3β2 and α4β2 subtypes [12]: approximately 5 fold
% human α4β2 Selectivity, α2β2 [12, 14]: 244%
Ki ([12]; read-out: Ki α2β2, human cloned receptors, 3H-epibatidine): 0.34 nM

Fc1ncccc1OC[C@@H]1CCN1 [[^18F]2-FA-85380, 2-fluoro-3-(2(S)-azetidinylmethoxy)pyridine]
Dose with no adverse effects [13]: up to 10 pmol/kg
